In PubChem BioAssay (NCI):
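Test compounds were applied to cells in 96-well plates for 48 hours at 5 doses. TGI: total growth inhibition.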

Columns and labels:
Assay in all cases: NCI tumour cell line growth inhibition, 48 h
A498 renal = system: A498 renal
LOX IMVI melanoma = system: LOX IMVI melanoma
HT29 colon = system: HT29 colon
SK-MEL-28 melanoma = system: SK-MEL-28 melanoma
SK-OV-3 ovarian = system: SK-OV-3 ovarian
LXFL 529 NSCLC = system: LXFL 529 NSCLC
UACC-62 melanoma = system: UACC-62 melanoma
HOP-92 NSCLC = system: HOP-92 NSCLC
ACHN renal = system: ACHN renal
IGROV1 ovarian = system: IGROV1 ovarian
RXF 393 renal = system: RXF 393 renal
OVCAR-8 ovarian = system: OVCAR-8 ovarian
HCC-2998 colon = system: HCC-2998 colon
SF-295 CNS = system: SF-295 CNS
SF-268 CNS = system: SF-268 CNS
NCI-H23 lung = system: NCI-H23 lung
RPMI-8226 leukemia = system: RPMI-8226 leukemia
MALME-3M melanoma = system: MALME-3M melanoma
SNB-19 CNS = system: SNB-19 CNS
SF-539 CNS = system: SF-539 CNS
OVCAR-5 ovarian = system: OVCAR-5 ovarian
UACC-257 melanoma = system: UACC-257 melanoma
HL-60(TB) leukemia = system: HL-60(TB) leukemia
COLO 205 colon = system: COLO 205 colon
786-0 renal = system: 786-0 renal
DMS 114 small cell lung = system: DMS 114 small cell lung
M14 melanoma = system: M14 melanoma
KM12 colon = system: KM12 colon
SK-MEL-5 melanoma = system: SK-MEL-5 melanoma
EKVX NSCLC = system: EKVX NSCLC
A549 NSCLC = system: A549 NSCLC
SN12C renal = system: SN12C renal
MOLT-4 leukemia = system: MOLT-4 leukemia
SNB-75 CNS = system: SNB-75 CNS
UO-31 renal = system: UO-31 renal
CAKI-1 renal = system: CAKI-1 renal
U251 CNS = system: U251 CNS
K-562 leukemia = system: K-562 leukemia
HOP-62 NSCLC = system: HOP-62 NSCLC
SW-620 colon = system: SW-620 colon
NCI-H460 lung = system: NCI-H460 lung
OVCAR-3 ovarian = system: OVCAR-3 ovarian
NCI-H226 lung = system: NCI-H226 lung
SNB-78 CNS = system: SNB-78 CNS
KM20L2 colon = system: KM20L2 colon
HCT-116 colon = system: HCT-116 colon
DLD-1 colon = system: DLD-1 colon
HCT-15 colon = system: HCT-15 colon
SK-MEL-2 melanoma = system: SK-MEL-2 melanoma
TK-10 renal = system: TK-10 renal
M19-MEL melanoma = system: M19-MEL melanoma
DMS 273 small cell lung = system: DMS 273 small cell lung
SR leukemia = system: SR leukemia
OVCAR-4 ovarian = system: OVCAR-4 ovarian
NCI-H522 lung = system: NCI-H522 lung
CCRF-CEM leukemia = system: CCRF-CEM leukemia

Q: What does the source list for `Cc1nc(-c2nc(C)c(C(=O)/C=C/c3ccc([N+](=O)[O-])cc3)s2)sc1C(=O)/C=C/c1ccc([N+](=O)[O-])cc1`?
A: TGI (A498 renal): > 100 µM; TGI (LOX IMVI melanoma): > 100 µM; TGI (HT29 colon): > 100 µM; TGI (SK-MEL-28 melanoma): > 100 µM; TGI (SK-OV-3 ovarian): > 100 µM; TGI (LXFL 529 NSCLC): > 100 µM; TGI (UACC-62 melanoma): > 100 µM; TGI (HOP-92 NSCLC): > 100 µM; TGI (ACHN renal): > 100 µM; TGI (IGROV1 ovarian): > 100 µM; TGI (RXF 393 renal): > 100 µM; TGI (OVCAR-8 ovarian): > 100 µM; TGI (HCC-2998 colon): > 100 µM; TGI (SF-295 CNS): > 100 µM; TGI (SF-268 CNS): > 100 µM; TGI (NCI-H23 lung): > 100 µM; TGI (RPMI-8226 leukemia): > 100 µM; TGI (MALME-3M melanoma): > 100 µM; TGI (SNB-19 CNS): > 100 µM; TGI (SF-539 CNS): > 100 µM; TGI (OVCAR-5 ovarian): > 100 µM; TGI (UACC-257 melanoma): > 100 µM; TGI (HL-60(TB) leukemia): > 100 µM; TGI (COLO 205 colon): > 100 µM; TGI (786-0 renal): > 100 µM; TGI (DMS 114 small cell lung): > 100 µM; TGI (M14 melanoma): > 100 µM; TGI (KM12 colon): > 100 µM; TGI (SK-MEL-5 melanoma): > 100 µM; TGI (EKVX NSCLC): > 100 µM; TGI (A549 NSCLC): > 100 µM; TGI (SN12C renal): > 100 µM; TGI (MOLT-4 leukemia): > 100 µM; TGI (SNB-75 CNS): > 100 µM; TGI (UO-31 renal): > 100 µM; TGI (CAKI-1 renal): > 100 µM; TGI (U251 CNS): > 100 µM; TGI (K-562 leukemia): > 100 µM; TGI (HOP-62 NSCLC): > 100 µM; TGI (SW-620 colon): > 100 µM; TGI (NCI-H460 lung): > 100 µM; TGI (OVCAR-3 ovarian): > 100 µM; TGI (NCI-H226 lung): > 100 µM; TGI (SNB-78 CNS): > 100 µM; TGI (KM20L2 colon): > 100 µM; TGI (HCT-116 colon): > 100 µM; TGI (DLD-1 colon): > 100 µM; TGI (HCT-15 colon): > 100 µM; TGI (SK-MEL-2 melanoma): > 100 µM; TGI (TK-10 renal): > 100 µM; TGI (M19-MEL melanoma): > 100 µM

Q: How did the TGI (HT29 colon) turn out when `COc1ccc2c(c1)OCCCN(C)OC2c1ccccc1` (centres undefined) was run?
A: The TGI was over 100 µM.

Q: What about the TGI (SK-MEL-28 melanoma) of the same molecule?
A: The TGI was over 100 µM.

Q: What about the TGI (SK-OV-3 ovarian) of the same molecule?
A: Its TGI is over 100 µM.

Q: And the TGI (LXFL 529 NSCLC)?
A: Its TGI is over 100 µM.

Q: And the TGI (UACC-62 melanoma)?
A: Its TGI is over 100 µM.

Q: What about the TGI (ACHN renal) of the same molecule?
A: The TGI was over 100 µM.

Q: And the TGI (IGROV1 ovarian)?
A: Its TGI is over 100 µM.

Q: What about the TGI (RXF 393 renal) of the same molecule?
A: The TGI was over 100 µM.

Q: What about the TGI (OVCAR-8 ovarian) of the same molecule?
A: The TGI was over 100 µM.

Q: And the TGI (HCC-2998 colon)?
A: Its TGI is over 100 µM.

Q: And the TGI (SF-295 CNS)?
A: The TGI was over 100 µM.

Q: And the TGI (SF-268 CNS)?
A: Its TGI is over 100 µM.

Q: And the TGI (NCI-H23 lung)?
A: The TGI was over 100 µM.

Q: And the TGI (RPMI-8226 leukemia)?
A: The TGI was over 100 µM.

Q: What about the TGI (MALME-3M melanoma) of the same molecule?
A: Its TGI is over 100 µM.

Q: And the TGI (SNB-19 CNS)?
A: The TGI was over 100 µM.

Q: What about the TGI (SF-539 CNS) of the same molecule?
A: The TGI was over 100 µM.

Q: And the TGI (OVCAR-5 ovarian)?
A: The TGI was over 100 µM.

Q: And the TGI (UACC-257 melanoma)?
A: The TGI was over 100 µM.

Q: What about the TGI (COLO 205 colon) of the same molecule?
A: Its TGI is over 100 µM.

Q: What about the TGI (786-0 renal) of the same molecule?
A: The TGI was over 100 µM.

Q: And the TGI (DMS 114 small cell lung)?
A: Its TGI is over 100 µM.

Q: What about the TGI (KM12 colon) of the same molecule?
A: The TGI was over 100 µM.

Q: And the TGI (SK-MEL-5 melanoma)?
A: The TGI was over 100 µM.

Q: What about the TGI (EKVX NSCLC) of the same molecule?
A: Its TGI is over 100 µM.

Q: And the TGI (A549 NSCLC)?
A: Its TGI is over 100 µM.

Q: And the TGI (SN12C renal)?
A: The TGI was over 100 µM.

Q: What about the TGI (MOLT-4 leukemia) of the same molecule?
A: Its TGI is over 100 µM.

Q: What about the TGI (SNB-75 CNS) of the same molecule?
A: Its TGI is over 100 µM.

Q: What about the TGI (UO-31 renal) of the same molecule?
A: The TGI was over 100 µM.

Q: And the TGI (CAKI-1 renal)?
A: Its TGI is over 100 µM.

Q: And the TGI (U251 CNS)?
A: The TGI was over 100 µM.

Q: What about the TGI (K-562 leukemia) of the same molecule?
A: The TGI was over 100 µM.

Q: What about the TGI (SW-620 colon) of the same molecule?
A: Its TGI is over 100 µM.

Q: And the TGI (OVCAR-3 ovarian)?
A: Its TGI is over 100 µM.

Q: What about the TGI (NCI-H226 lung) of the same molecule?
A: The TGI was over 100 µM.

Q: What about the TGI (SNB-78 CNS) of the same molecule?
A: Its TGI is over 100 µM.

Q: What about the TGI (KM20L2 colon) of the same molecule?
A: The TGI was over 100 µM.

Q: What about the TGI (HCT-116 colon) of the same molecule?
A: Its TGI is over 100 µM.

Q: What about the TGI (HCT-15 colon) of the same molecule?
A: Its TGI is over 100 µM.

Q: And the TGI (DMS 273 small cell lung)?
A: Its TGI is over 100 µM.

Q: And the TGI (SK-MEL-2 melanoma)?
A: The TGI was over 100 µM.

Q: And the TGI (TK-10 renal)?
A: Its TGI is over 100 µM.

Q: What about the TGI (SR leukemia) of the same molecule?
A: The TGI was over 100 µM.

Q: And the TGI (M19-MEL melanoma)?
A: The TGI was over 100 µM.

Q: Which results are given for `Cc1cc2c(=O)cc(-c3cccs3)oc2c(C(=O)O)c1C`?
A: TGI (A498 renal): > 100 µM; TGI (LOX IMVI melanoma): > 100 µM; TGI (HT29 colon): > 100 µM; TGI (SK-MEL-28 melanoma): > 100 µM; TGI (SK-OV-3 ovarian): > 100 µM; TGI (LXFL 529 NSCLC): > 100 µM; TGI (UACC-62 melanoma): > 100 µM; TGI (HOP-92 NSCLC): > 100 µM; TGI (ACHN renal): > 100 µM; TGI (IGROV1 ovarian): > 100 µM; TGI (OVCAR-8 ovarian): > 100 µM; TGI (HCC-2998 colon): > 100 µM; TGI (SF-295 CNS): > 100 µM; TGI (SF-268 CNS): > 100 µM; TGI (NCI-H23 lung): > 100 µM; TGI (RPMI-8226 leukemia): > 100 µM; TGI (MALME-3M melanoma): > 100 µM; TGI (OVCAR-4 ovarian): > 100 µM; TGI (SNB-19 CNS): > 100 µM; TGI (NCI-H522 lung): 48.4 µM; TGI (OVCAR-5 ovarian): > 100 µM; TGI (UACC-257 melanoma): > 100 µM; TGI (COLO 205 colon): > 100 µM; TGI (786-0 renal): > 100 µM; TGI (M14 melanoma): > 100 µM; TGI (KM12 colon): > 100 µM; TGI (SK-MEL-5 melanoma): > 100 µM; TGI (EKVX NSCLC): > 100 µM; TGI (CCRF-CEM leukemia): > 100 µM; TGI (A549 NSCLC): > 100 µM; TGI (SN12C renal): > 100 µM; TGI (MOLT-4 leukemia): > 100 µM; TGI (SNB-75 CNS): 37.6 µM; TGI (UO-31 renal): > 100 µM; TGI (U251 CNS): > 100 µM; TGI (K-562 leukemia): > 100 µM; TGI (HOP-62 NSCLC): > 100 µM; TGI (SW-620 colon): > 100 µM; TGI (NCI-H460 lung): > 100 µM; TGI (OVCAR-3 ovarian): > 100 µM; TGI (KM20L2 colon): > 100 µM; TGI (HCT-116 colon): > 100 µM; TGI (DLD-1 colon): > 100 µM; TGI (HCT-15 colon): > 100 µM; TGI (DMS 273 small cell lung): > 100 µM; TGI (SK-MEL-2 melanoma): > 100 µM; TGI (TK-10 renal): > 100 µM; TGI (M19-MEL melanoma): > 100 µM
